Earlier results in patent US20100120050A1, “Biomarkers For Assessing Altherosclerotic Potential” (ENTELOS, INC., priority 2008, published 2010).

Conditions: clinical trials and post-marketing; cited from earlier work

In the case of `Cc1c(C(=O)NN2CCCCC2)nn(-c2ccc(Cl)cc2Cl)c1-c1ccc(Cl)cc1` [rimonabant], the “effect on plaque endpoints” value is listed as “little observed effect on plaque endpoints”.
